Data reported in patent US20140178305A1, “IDENTIFICATION AND USE OF ANXIOLYTIC COMPOUNDS” (CALIFORNIA INSTITUTE OF TECHNOLOGY, priority 2012, published 2014).
Entries after “also recorded” stand apart in the source; their conditions may differ.

Legend:
[1] = tested on: MRGPRB4+ fibres; experiment: Two-photon in vivo calcium imaging (GCaMP3.0) of central afferent fibres through a spinal cord laminectomy, chemical stimuli; set-up: species or system mouse; settings: CNO, mice injected only with GCaMP3.0 viruses (no hM3DREADD)
Protocol: Mice expressing reporters and/or Cre recombinase targeted to the MrgprB4 locus were generated by homologous recombination in embryonic stem cells, according to standard procedures. Heterozygous neonates from MrgprD-Cre and MrgprB4-Cre mice were injected intraperitoneally with Cre-dependent AAV8 viruses expressing GCaMP3.0 or mGCaMP3.0 or hM3(Gq-coupled) DREADD, and imaged as adults (≧8 weeks old).
Electrophysiology experiments on ex vivo skin-nerve preparations from adult heterozygous Mrgprb4-EGFPf reporter mice were performed as described in Woodbury, et al. J. Comp. Neurol. 436, 304-323 (2001). For calcium imaging, after a dorsal laminectomy the spinal column was stabilized and filled with imaging solution (see below for details). Imaging was performed using a two-photon laser-scanning microscope (Ultima, Prairie Inc.) using an Olympus 40×0.8 N.A. water immersion objective, at 128×128 pixel resolution with an acquisition rate of 8-12 frames per second. Mechanical stimuli were delivered using a custom-modified No. 5 sable paint brush or serrated forceps, in a manner electronically time-stamped to image acquisition, as may be seen in FIGS. 18A-18C and further discussed below. Stimuli were delivered to each mouse in a series of trials, separated by a few minutes; each trial consisted of one or more stimuli delivered typically at intervals of several seconds. Chemical stimuli were delivered to the spinal cord using a Pipetman pipette and to the periphery using a syringe pump. Calcium responses were analysed using custom software written in Matlab (see below for more details). For calculating ΔF/F [(Fav−F0)/F0], F0 is the average of the first ten frames of the recording period.
Mice 2 months or older were sedated by i.p. injection of a mix of ketamine (100 mg/kg), xylazine (15 mg/kg), acepromazine (2.5 mg/kg in 0.9% NaCl). During surgery, body temperature was maintained at 37° C. with a heating blanket.
A dorsal laminectomy was performed mostly at spinal level L2-L4 (but occasionally at L1-L3) as described in Johannssen, et al. J. Physiol. (Lond.) 588:3397-3402 (2010), but without removing the dura. The spinal column was stabilized using Narishige STS-A spinal clamps. In addition a head-holding adaptor from Kopf (923-B Mouse Gas Anaesthesia Head Holder) was used that has installed an anaesthesia/gas mask for positioning the mouse head. In this apparatus the gas is applied through a standard hose barb positioned above the nose on the mask. The inlet fills a large gas chamber around the snout, a second hose barb below the mask is provided for vacuuming off excess, expelled gasses. The animals were maintained under continuous anaesthesia for the duration of the imaging experiments with 1-2% isofluorane or with hourly injections of the above ketamine mix. A well was built around the exposed spinal cord using Gelseal (Amersham Biosciences Corp) and Kwik Sil Adhesive (WPI). Warm imaging solution (in mM: 130 NaCl, 3 KCl, 2.5 CaCl2, 0.6 6H2O.MgCl2, 10 HEPES without Na, 1.2 NaHCO3, 10 glucose, pH7.45 with NaOH) (37° C.) was repeatedly applied to prevent drying and maintain tissue integrity, and to allow the use of immersion objectives. During imaging the body temperature of the animals was maintained at 37° C. with a heating blanket and an air-therm heater (WPI) placed inside the microscope area.
Imaging experiments were performed under a two-photon laser-scanning microscope (Ultima, Prairie Instruments Inc.). Live images were acquired at 8-12 frames per second, at depths below the pia ranging from 100 to 250 μm, using an Olympus 40×0.8 N.A. water immersion objective, at 128×128 pixel resolution with a laser tuned to 940 nm wavelength, and emission filters 525/50 nm and 595/50 nm for green and red fluorescence, respectively. Laser power was adjusted to be 20-25 mW at the focal plane (maximally 35 mW), depending on the imaging depth and level of expression of GCaMP3.0. […]

[2] = tested on: MRGPRB4+ spinal afferent fibres co-expressing GCaMP3.0 and hM3DREADD; experiment: Calcium imaging after spinal application of CNO in MrgprB4+ fibres expressing hM3DREADD and GCaMP3.0; assay type: in vivo, mouse; settings: CNO 1.5 mM, mice co-injected with GCaMP3.0 and hM3DREADD viruses
Protocol: KCl, final concentration (60 mM), α,β-methyl ATP (5 mM) and CNO (1.5 mM) were delivered manually to the imaging bath using a pipetman pipette.
The stimuli used to activate MRGPRB41 fibres were designed to mimic stroking and allogrooming stimuli. […] To determine whether direct activation of MRGPRB41 neurons could similarly promote a preference for the location in which this stimulation occurred, a pharmacogenetic strategy was used. Juvenile (1-month-old) Mrgprb4-cre male mice were injected neonatally with an AAV encoding the hM3-(Gq-coupled)DREADD19, the activation of which by clozapine-N-oxide (CNO) causes membrane depolarization (FIG. 4a).
Spinal application of CNO was employed to image activation of hM3DREADD and GCaMP3.0-expressing MrgprB4^+ fibers. The low probability of double-infection of individual MrgprB4^+ neurons with both the GCaMP3.0 and hM3DREADD Cre-dependent viruses (˜30%), taken together with the difficulty of identifying sites for focal peripheral injection corresponding to specific MrgprB4^+ central afferent fibers visualized in the spinal cord, precluded peripheral delivery of CNO for this assay.

With C[N+]1([O-])CCN(C2=Nc3cc(Cl)ccc3Nc3ccccc32)CC1 [CNO, Clozapine-N-oxide] the “calcium transients after application to the spinal cord” value [1] was “no CNO responses” and the “calcium transients after application to the spinal cord” value [2] was “able to induce calcium transients; also recorded: robust calcium transients”.
